The values that follow are results of earlier work, collected in patent publication US12527745B2, “Pharmaceutical dosage form for an emulsion of simethicone and loperamide” (R.P. SCHERER TECHNOLOGIES, LLC, priority 2018, dated 2026).

For this data set the following is noted: single surfactant.

Turning to sorbitan mono-oleate, the HLB is 4.3.

For Polysorbate 80, the HLB is 15.
